Results on 41 molecules are retold here after patent US8536332B2, “Modulating signal transduction pathways with substituted pyridol [2,3-b] pyrazines” (Aeterna Zentaris GmbH, priority 2007, dated 2013).

Some results are limits rather than exact numbers.

`CCNC(=O)Nc1ccc2ncc(-c3ccc(-c4ccccc4)cc3F)nc2n1` [Compound 84, 1-Ethyl-3-[3-(3-fluoro-biphenyl-4-yl)-pyrido[2,3-b]pyrazin-6-yl]-urea] came in with a melting point of 263.9 to 265.6 °C.

`CCNC(=O)Nc1cnc2ccc(N3CCOCC3)nc2n1` [Compound 225, 1-Ethyl-3-(6-morpholin-4-yl-pyrido[2,3-b]pyrazin-3-yl)-urea] showed a melting point of 243 to 245 °C.

With `CCNC(=S)Nc1ccc2ncc(Nc3cc(Cl)c(Cl)c(Cl)c3)nc2n1` [Compound 465, 1-Ethyl-3-[3-(3,4,5-trichloro-phenylamino)-pyrido[2,3-b]pyrazin-6-yl]-thiourea], the melting point was determined as 277 °C.

With `CCNC(=O)Nc1ccc2ncc(-c3ccc(OP(=O)(OCC)OCC)c(OC)c3)nc2n1`, the melting point lay within 182 to 184 °C.

Consider `CCNC(=S)Nc1cnc2ccc(Nc3ccc(Cl)cc3)nc2n1` [Compound 217, 1-[6-(4-Chloro-phenylamino)-pyrido[2,3-b]pyrazin-3-yl]-3-ethyl-thiourea], for which the melting point was found to be 185 °C.

On to `CCNC(=O)Nc1ccc2ncc(-c3cccc(F)c3)nc2n1` [Compound 129, 1-Ethyl-3-[3-(3-fluoro-phenyl)-pyrido[2,3-b]pyrazin-6-yl]-urea], for which the melting point was 283 to 286 °C.

For the molecule `CCNC(=O)Nc1cnc2ccc(-c3cc(C)c(OC)c(C)c3)nc2n1` [Compound 586, 1-Ethyl-3-[6-(4-methoxy-3,5-dimethyl-phenyl)-pyrido[2,3-b]pyrazin-3-yl]-urea], the melting point fell in the range of 240 to 241 °C.

`COc1cc(-c2ccc3ncc(NC(=O)Nc4ccc(C#N)cc4)nc3n2)ccc1O` [Compound 626, 1-(4-Cyano-phenyl)-3-[6-(4-hydroxy-3-methoxy-phenyl)-pyrido[2,3-b]pyrazin-3-yl]-urea] returned a melting point of 259 to 261 °C.

The molecule `CCNC(=S)Nc1ccc2ncc(-c3cc(C)c(O)c(C)c3)nc2n1` [Compound 125, 1-Ethyl-3-[3-(4-hydroxy-3,5-dimethyl-phenyl)-pyrido[2,3-b]pyrazin-6-yl]-thiourea] had a melting point of 244 °C.

`CCNC(=O)Nc1cnc2ccc(Nc3ccc(OC)c(Cl)c3)nc2n1` [Compound 201, 1-[6-(3-Chloro-4-methoxy-phenylamino)-pyrido[2,3-b]pyrazin-3-yl]-3-ethyl-urea]: the melting point worked out at 260 °C.

`CC(C)Oc1cccc(Nc2cnc3ccc(NC(=O)NC4CC4)nc3n2)c1` [Compound 49, 1-Cyclopropyl-3-[3-(3-isopropoxy-phenylamino)-pyrido[2,3-b]pyrazin-6-yl]-urea] yielded a melting point of 134 °C.

`COc1cc(-c2ccc3ncc(NC(=O)Nc4ccc(N5CCN(C)CC5)cc4)nc3n2)ccc1O` [Compound 620, 1-[6-(4-Hydroxy-3-methoxy-phenyl)-pyrido[2,3-b]pyrazin-3-yl]-3-[4-(4-methyl-piperazin-1-yl)-phenyl]-urea] displayed a melting point of 207 to 210 °C.

`CCNC(=O)Nc1ccc2ncc(-c3ccc(OS(C)(=O)=O)c(OC)c3)nc2n1` [Compound 43, Methanesulfonic acid 4-[6-(3-ethyl-ureido)-pyrido[2,3-b]pyrazin-3-yl]-2-methoxy-phenyl ester] had a melting point of 246 to 249 °C.

On to `CCNC(=O)Nc1ccc2ncc(-c3cccc(C)c3C)nc2n1` [Compound 107, 1-[3-(2,3-Dimethyl-phenyl)-pyrido[2,3-b]pyrazin-6-yl]-3-ethyl-urea], for which the melting point was 260 °C.

Molecule `CCNC(=O)Nc1ccc2ncc(-c3cccc(Cl)c3Cl)nc2n1` [Compound 108, 1-[3-(2,3-Dichloro-phenyl)-pyrido[2,3-b]pyrazin-6-yl]-3-ethyl-urea] came in with a melting point greater than 350 °C.

With `O=C(Nc1cnc2ccc(-c3cc(Cl)c(O)c(Cl)c3)nc2n1)Nc1ccccc1[N+](=O)[O-]` [Compound 561, 1-[6-(3,5-Dichloro-4-hydroxy-phenyl)-pyrido[2,3-b]pyrazin-3-yl]-3-(2-nitro-phenyl)-urea], the melting point was greater than 300 °C.

As for `CCNC(=S)Nc1cnc2ccc(Nc3cccc(OC)c3)nc2n1` [Compound 221, 1-Ethyl-3-[6-(3-methoxy-phenylamino)-pyrido[2,3-b]pyrazin-3-yl]-thiourea], the melting point is 189 °C.

Consider `COc1cc(Nc2cnc3ccc(NC(=S)Nc4c(C)noc4C)nc3n2)cc(OC)c1OC` [Compound 695, 1-(3,5-Dimethyl-isoxazol-4-yl)-3-[3-(3,4,5-trimethoxy-phenylamino)-pyrido[2,3-b]pyrazin-6-yl]-thiourea], for which the melting point worked out at 247 °C.

`COc1cc(-c2ccc3ncc(NC(=O)NCCCCc4ccccc4)nc3n2)ccc1O` [Compound 630, 1-[6-(4-Hydroxy-3-methoxy-phenyl)-pyrido[2,3-b]pyrazin-3-yl]-3-(4-phenyl-butyl)-urea] had a melting point of 208 to 210 °C.

In turn, `CCOC(=O)CCNC(=S)Nc1ccc2ncc(Nc3cc(OC)c(OC)c(OC)c3)nc2n1` [Compound 709, 3-{3-[3-(3,4,5-Trimethoxy-phenylamino)-pyrido[2,3-b]pyrazin-6-yl]-thioureido}-propionic acid ethyl ester] came in with a melting point of 244 °C.

The molecule `CCNC(=O)Nc1ccc2ncc(-c3cnn(Cc4ccccc4)c3)nc2n1` [Compound 58, 1-[3-(1-Benzyl-1H-pyrazol-4-yl)-pyrido[2,3-b]pyrazin-6-yl]-3-ethyl-urea] had a melting point of 258 to 261 °C.

The molecule `CCNC(=O)Nc1cnc2ccc(Nc3ccc(O)cc3)nc2n1` [Compound 24, 1-Ethyl-3-[6-(4-hydroxy-phenylamino)-pyrido[2,3-b]pyrazin-3-yl]-urea] gave a melting point of 277 °C.

Molecule `CCNC(=O)Nc1ccc2ncc(-c3cc(Cl)cc(Cl)c3)nc2n1` [Compound 90, 1-[3-(3,5-Dichloro-phenyl)-pyrido[2,3-b]pyrazin-6-yl]-3-ethyl-urea] showed a melting point of 298 to 305 °C.

With `COc1cc(Nc2cnc3ccc(NC(=S)NCc4ccc(C)cc4)nc3n2)cc(OC)c1OC` [Compound 698, 1-(4-Methyl-benzyl)-3-[3-(3,4,5-trimethoxy-phenylamino)-pyrido[2,3-b]pyrazin-6-yl]-thiourea], the melting point was 248 to 250 °C.

`CCNC(=O)Nc1cnc2ccc(-c3cc(C(C)(C)C)c(O)c(C(C)(C)C)c3)nc2n1` [Compound 596, 1-[6-(3,5-Di-tert-butyl-4-hydroxy-phenyl)-pyrido[2,3-b]pyrazin-3-yl]-3-ethyl-urea] had a melting point of 263 °C.

In turn, `CCNC(=O)Nc1ccc2ncc(-c3cccc(CO)c3)nc2n1` [Compound 115, 1-Ethyl-3-[3-(3-hydroxymethyl-phenyl)-pyrido[2,3-b]pyrazin-6-yl]-urea] showed a melting point of 200 to 202 °C.

The molecule `CCNC(=S)Nc1cnc2ccc(Nc3cccc(CC(=O)O)c3)nc2n1` [Compound 195, {3-[3-(3-Ethyl-thioureido)-pyrido[2,3-b]pyrazin-6-ylamino]-phenyl}-acetic acid] displayed a melting point of 248 °C.

The molecule `CCNC(=S)Nc1ccc2ncc(Nc3ccc(O)cc3)nc2n1` [Compound 161, 1-Ethyl-3-[3-(4-hydroxy-phenylamino)-pyrido[2,3-b]pyrazin-6-yl]-thiourea] had a melting point of 262 °C.

In turn, `CNC(=O)Nc1cnc2ccc(-c3ccc(O)c(OC)c3)nc2n1` [Compound 172, 1-[6-(4-Hydroxy-3-methoxy-phenyl)-pyrido[2,3-b]pyrazin-3-yl]-3-methyl-urea] showed a melting point of 242 to 244 °C.

Take `CCNC(=O)Nc1ccc2ncc(Nc3cccc(Oc4ccccc4)c3)nc2n1` [Compound 155, 1-Ethyl-3-[3-(3-phenoxy-phenylamino)-pyrido[2,3-b]pyrazin-6-yl]-urea]: the melting point was 230 °C.

`CCNC(=O)Nc1ccc2ncc(-c3cnc4[nH]ccc4c3)nc2n1` [Compound 61, 1-Ethyl-3-[3-(1H-pyrrolo[2,3-b]pyridin-5-yl)-pyrido[2,3-b]pyrazin-6-yl]-urea] gave a melting point of 270 to 274 °C.

For the molecule `C=CCNC(=O)Nc1cnc2ccc(-c3cc(C)c(O)c(C)c3)nc2n1` [Compound 587, 1-Allyl-3-[6-(4-hydroxy-3,5-dimethyl-phenyl)-pyrido[2,3-b]pyrazin-3-yl]-urea], the melting point lay in the range of 210 to 212 °C.

In turn, `CCNC(=S)Nc1cnc2ccc(Nc3ccc(C)c(NS(C)(=O)=O)c3)nc2n1` [Compound 207, N-{5-[3-(3-Ethyl-thioureido)-pyrido[2,3-b]pyrazin-6-ylamino]-2-methyl-phenyl}-methanesulfonamide] yielded a melting point of 236 °C.

Regarding `CCNC(=O)Nc1cnc2ccc(-c3ccc(C)cc3)nc2n1` [Compound 178, 1-Ethyl-3-(6-p-tolyl-pyrido[2,3-b]pyrazin-3-yl)-urea], the melting point was 227 to 228 °C.

`CCNC(=O)Nc1ccc2ncc(-c3ccc(OP(=O)([O-])[O-])c(OC)c3)nc2n1.[Na+].[Na+]` gave a melting point greater than 350 °C.

In the case of `C=CCNC(=S)Nc1cnc2ccc(-c3ccc(O)c(OC)c3)nc2n1` [Compound 521, 1-Allyl-3-[6-(4-hydroxy-3-methoxy-phenyl)-pyrido[2,3-b]pyrazin-3-yl]-thiourea], the melting point lay in the range of 261 to 262 °C.

`CCCOc1ccc(-c2cnc3ccc(NC(=O)NCC)nc3n2)cc1` [Compound 133, 1-Ethyl-3-[3-(4-propoxy-phenyl)-pyrido[2,3-b]pyrazin-6-yl]-urea] gave a melting point of 258.7 °C.

As to `CCNC(=O)Nc1ccc2ncc(-c3cccc4c3oc3ccccc34)nc2n1` [Compound 71, 1-(3-Dibenzofuran-4-yl-pyrido[2,3-b]pyrazin-6-yl)-3-ethyl-urea], the melting point is greater than 300 °C.

`CCNC(=O)Nc1ccc2ncc(Nc3ccc4c(c3)OC(F)(F)O4)nc2n1` [Compound 42, 1-[3-(2,2-Difluoro-benzo[1,3]dioxol-5-ylamino)-pyrido[2,3-b]pyrazin-6-yl]-3-ethyl-urea] came in with a melting point of 238 to 241 °C.

The molecule `CCNC(=O)Nc1ccc2ncc(-c3cccc(-c4ccccc4)c3)nc2n1` [Compound 116, 1-(3-Biphenyl-3-yl-pyrido[2,3-b]pyrazin-6-yl)-3-ethyl-urea] had a melting point of 251 to 255 °C.

Turning to `CCNC(=S)Nc1ccc2ncc(Nc3ccc(F)c(F)c3)nc2n1` [Compound 433, 1-[3-(3,4-Difluoro-phenylamino)-pyrido[2,3-b]pyrazin-6-yl]-3-ethyl-thiourea], the melting point came to 265 °C.

By melting point is commonly meant the temperature, or range, at which the solid turns liquid.
